This is an account of results in ChEMBL document CHEMBL5291721, “A preclinical secondary pharmacology resource illuminates target-adverse drug reaction associations of marketed drugs” (Nat Commun, 2023).

SMILES strings stand for the structures. Where only a bound is given, the exact number is not on record here.

One assay deals with T1, Estrogen receptor (Homo sapiens, UniProt P03372).
T1 sequence (P03372 whole entry): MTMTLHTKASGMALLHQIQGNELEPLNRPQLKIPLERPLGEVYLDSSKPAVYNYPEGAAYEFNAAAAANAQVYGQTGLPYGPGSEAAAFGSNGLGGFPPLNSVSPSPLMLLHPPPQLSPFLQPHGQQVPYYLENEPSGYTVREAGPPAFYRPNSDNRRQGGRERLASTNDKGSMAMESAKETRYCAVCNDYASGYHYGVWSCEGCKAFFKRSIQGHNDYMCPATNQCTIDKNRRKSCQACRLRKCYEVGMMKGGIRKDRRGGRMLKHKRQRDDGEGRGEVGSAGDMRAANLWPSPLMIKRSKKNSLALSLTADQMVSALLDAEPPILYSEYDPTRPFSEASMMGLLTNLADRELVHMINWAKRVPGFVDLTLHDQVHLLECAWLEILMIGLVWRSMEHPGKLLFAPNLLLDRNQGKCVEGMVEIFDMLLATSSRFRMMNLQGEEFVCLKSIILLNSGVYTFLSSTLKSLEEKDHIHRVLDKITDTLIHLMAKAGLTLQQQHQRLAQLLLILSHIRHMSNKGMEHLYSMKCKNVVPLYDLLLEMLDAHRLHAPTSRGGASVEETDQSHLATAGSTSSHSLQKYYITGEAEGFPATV

A further assay addresses Histamine H2 receptor (Homo sapiens, UniProt P25021).
The target of assay [1] is Voltage-dependent N-type calcium channel subunit alpha-1B (Rattus norvegicus, UniProt Q02294). The assay is classed as functional.
Voltage-dependent N-type calcium channel subunit alpha-1B, sequence (Q02294 whole entry): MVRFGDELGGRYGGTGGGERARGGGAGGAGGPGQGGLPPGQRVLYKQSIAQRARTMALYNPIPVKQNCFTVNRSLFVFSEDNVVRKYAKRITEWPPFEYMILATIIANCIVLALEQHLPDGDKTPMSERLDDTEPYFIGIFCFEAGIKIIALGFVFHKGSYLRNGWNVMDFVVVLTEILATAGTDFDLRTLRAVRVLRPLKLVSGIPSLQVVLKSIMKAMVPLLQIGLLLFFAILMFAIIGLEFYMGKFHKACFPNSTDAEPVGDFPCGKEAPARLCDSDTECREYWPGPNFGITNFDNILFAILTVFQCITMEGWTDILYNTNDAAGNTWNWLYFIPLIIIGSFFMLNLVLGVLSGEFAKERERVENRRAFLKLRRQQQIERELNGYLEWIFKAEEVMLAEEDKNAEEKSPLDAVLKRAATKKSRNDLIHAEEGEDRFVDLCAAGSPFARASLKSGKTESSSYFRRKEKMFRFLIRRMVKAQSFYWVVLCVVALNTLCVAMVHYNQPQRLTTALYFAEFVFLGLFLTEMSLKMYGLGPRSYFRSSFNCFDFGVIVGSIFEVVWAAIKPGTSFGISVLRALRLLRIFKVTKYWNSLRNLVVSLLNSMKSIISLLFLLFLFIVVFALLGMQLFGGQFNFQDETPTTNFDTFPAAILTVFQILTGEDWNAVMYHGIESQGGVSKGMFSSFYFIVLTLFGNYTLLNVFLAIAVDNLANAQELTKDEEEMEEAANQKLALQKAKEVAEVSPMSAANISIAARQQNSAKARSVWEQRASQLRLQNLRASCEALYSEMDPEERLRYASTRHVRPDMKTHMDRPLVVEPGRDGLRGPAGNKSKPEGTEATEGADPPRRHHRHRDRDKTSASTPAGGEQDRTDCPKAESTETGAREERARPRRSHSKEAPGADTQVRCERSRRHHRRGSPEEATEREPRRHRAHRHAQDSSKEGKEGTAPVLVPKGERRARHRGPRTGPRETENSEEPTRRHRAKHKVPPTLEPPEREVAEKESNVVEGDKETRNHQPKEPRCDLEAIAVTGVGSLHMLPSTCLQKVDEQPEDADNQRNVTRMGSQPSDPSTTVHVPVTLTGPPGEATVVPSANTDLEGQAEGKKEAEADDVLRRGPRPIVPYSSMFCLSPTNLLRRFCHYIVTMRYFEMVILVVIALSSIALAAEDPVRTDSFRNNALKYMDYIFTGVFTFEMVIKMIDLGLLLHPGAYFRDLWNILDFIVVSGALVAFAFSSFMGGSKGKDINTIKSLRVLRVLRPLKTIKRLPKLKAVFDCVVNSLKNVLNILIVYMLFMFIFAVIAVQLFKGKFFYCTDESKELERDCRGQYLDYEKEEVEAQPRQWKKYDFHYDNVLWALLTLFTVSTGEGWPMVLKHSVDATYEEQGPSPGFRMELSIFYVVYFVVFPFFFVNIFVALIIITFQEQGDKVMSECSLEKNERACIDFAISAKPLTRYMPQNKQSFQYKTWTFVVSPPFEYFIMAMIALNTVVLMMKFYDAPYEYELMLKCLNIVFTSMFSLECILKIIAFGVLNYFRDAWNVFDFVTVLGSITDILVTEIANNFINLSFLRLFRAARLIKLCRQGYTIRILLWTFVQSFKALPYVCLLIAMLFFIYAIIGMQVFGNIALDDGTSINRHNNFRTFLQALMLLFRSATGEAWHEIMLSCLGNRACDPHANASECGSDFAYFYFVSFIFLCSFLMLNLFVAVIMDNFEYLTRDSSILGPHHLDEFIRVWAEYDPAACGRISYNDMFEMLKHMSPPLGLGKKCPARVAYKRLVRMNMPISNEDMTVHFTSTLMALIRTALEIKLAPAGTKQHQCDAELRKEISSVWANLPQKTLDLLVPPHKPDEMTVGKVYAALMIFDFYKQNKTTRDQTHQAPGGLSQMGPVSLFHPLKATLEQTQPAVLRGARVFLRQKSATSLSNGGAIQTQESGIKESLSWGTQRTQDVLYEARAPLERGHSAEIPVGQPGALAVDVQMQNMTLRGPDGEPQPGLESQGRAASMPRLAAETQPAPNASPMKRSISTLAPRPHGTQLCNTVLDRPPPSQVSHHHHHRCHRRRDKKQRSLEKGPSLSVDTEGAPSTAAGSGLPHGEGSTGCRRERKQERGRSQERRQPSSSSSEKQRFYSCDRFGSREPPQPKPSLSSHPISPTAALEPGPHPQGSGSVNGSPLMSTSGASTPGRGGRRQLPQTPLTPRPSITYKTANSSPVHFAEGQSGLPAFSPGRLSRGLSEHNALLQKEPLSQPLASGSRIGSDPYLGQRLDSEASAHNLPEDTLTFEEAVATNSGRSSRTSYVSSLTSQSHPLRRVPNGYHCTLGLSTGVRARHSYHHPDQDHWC
Assay [2] addresses T2, Alpha-2A adrenergic receptor (Homo sapiens, UniProt P08913).
T2 sequence (P08913 whole entry): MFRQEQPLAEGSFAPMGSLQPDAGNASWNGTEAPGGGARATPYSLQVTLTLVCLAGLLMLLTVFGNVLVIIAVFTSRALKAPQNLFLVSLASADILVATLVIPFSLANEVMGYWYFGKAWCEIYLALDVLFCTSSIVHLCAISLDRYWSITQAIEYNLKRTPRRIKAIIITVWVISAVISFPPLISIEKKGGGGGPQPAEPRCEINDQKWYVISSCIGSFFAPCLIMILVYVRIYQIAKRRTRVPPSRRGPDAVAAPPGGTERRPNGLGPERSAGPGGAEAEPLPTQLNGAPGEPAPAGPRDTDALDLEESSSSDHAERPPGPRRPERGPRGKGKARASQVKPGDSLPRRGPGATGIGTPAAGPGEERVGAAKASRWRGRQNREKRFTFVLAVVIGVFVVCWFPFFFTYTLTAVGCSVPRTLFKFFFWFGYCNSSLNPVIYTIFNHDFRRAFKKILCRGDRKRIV

In assay [3] the target is T3, Gamma-aminobutyric acid receptor subunit alpha-1/alpha-2/beta-2/gamma-2 (Homo sapiens, UniProt P14867+P18507+P47869+P47870). The format is functional, cell-based.
T3 sequence (P14867 whole entry): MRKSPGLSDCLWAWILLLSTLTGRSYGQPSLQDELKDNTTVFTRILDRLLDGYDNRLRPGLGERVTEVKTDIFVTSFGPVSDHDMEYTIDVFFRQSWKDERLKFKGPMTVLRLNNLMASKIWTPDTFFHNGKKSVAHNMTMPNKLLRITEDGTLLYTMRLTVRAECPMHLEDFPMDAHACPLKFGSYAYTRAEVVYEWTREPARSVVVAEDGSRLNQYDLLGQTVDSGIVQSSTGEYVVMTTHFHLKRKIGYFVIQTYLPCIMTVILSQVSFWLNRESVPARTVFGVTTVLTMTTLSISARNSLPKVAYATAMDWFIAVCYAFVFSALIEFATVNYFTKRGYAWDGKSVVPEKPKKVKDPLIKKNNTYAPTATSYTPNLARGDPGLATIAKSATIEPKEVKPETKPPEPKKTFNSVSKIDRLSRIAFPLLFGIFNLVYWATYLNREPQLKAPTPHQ
T3 sequence (P47870 whole entry): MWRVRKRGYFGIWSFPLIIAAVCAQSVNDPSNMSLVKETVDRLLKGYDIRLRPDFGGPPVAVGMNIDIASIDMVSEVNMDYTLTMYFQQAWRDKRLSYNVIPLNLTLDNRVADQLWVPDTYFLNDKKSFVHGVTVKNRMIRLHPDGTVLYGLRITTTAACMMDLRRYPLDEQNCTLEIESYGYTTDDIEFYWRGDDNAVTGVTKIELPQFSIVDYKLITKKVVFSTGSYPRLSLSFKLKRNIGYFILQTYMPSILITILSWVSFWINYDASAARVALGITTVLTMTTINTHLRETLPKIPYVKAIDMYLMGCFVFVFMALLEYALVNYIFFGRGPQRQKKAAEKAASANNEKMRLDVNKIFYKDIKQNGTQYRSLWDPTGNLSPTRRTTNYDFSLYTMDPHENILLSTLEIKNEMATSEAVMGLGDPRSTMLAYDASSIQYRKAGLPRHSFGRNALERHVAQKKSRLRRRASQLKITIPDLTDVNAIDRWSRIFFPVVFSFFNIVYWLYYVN
T3 sequence (P18507 whole entry): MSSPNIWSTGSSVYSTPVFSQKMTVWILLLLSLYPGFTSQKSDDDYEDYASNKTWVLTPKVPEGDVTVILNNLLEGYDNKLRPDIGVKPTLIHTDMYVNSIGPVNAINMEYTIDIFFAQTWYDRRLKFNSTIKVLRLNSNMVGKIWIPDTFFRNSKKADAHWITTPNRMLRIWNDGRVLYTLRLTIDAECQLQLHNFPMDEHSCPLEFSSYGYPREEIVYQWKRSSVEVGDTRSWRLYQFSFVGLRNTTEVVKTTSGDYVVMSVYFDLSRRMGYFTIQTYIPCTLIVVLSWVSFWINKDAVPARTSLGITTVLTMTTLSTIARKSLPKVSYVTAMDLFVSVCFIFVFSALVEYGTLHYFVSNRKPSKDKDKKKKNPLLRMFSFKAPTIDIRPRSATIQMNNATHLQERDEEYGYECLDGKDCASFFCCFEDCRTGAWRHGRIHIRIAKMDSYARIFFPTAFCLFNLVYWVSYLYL
T3 sequence (P47869 whole entry): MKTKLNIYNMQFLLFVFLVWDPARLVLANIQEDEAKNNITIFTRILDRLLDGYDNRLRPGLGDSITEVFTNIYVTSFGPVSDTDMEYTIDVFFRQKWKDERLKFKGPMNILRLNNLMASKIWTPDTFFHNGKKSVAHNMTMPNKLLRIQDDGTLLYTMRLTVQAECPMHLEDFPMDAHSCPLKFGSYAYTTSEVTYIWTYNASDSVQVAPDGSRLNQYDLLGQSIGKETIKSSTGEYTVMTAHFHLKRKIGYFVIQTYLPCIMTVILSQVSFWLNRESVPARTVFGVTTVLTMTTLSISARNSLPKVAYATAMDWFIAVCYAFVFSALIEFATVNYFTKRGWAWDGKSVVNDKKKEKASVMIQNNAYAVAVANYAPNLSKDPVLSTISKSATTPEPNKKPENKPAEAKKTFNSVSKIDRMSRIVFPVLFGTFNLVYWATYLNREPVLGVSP
The target in assay [4] is T3, Gamma-aminobutyric acid receptor subunit alpha-1/alpha-2/beta-2/gamma-2. The assay is classed as protein-complex assay.
The next assay deals with T4, Glucocorticoid receptor (Homo sapiens, UniProt P04150).
T4 sequence (P04150 whole entry): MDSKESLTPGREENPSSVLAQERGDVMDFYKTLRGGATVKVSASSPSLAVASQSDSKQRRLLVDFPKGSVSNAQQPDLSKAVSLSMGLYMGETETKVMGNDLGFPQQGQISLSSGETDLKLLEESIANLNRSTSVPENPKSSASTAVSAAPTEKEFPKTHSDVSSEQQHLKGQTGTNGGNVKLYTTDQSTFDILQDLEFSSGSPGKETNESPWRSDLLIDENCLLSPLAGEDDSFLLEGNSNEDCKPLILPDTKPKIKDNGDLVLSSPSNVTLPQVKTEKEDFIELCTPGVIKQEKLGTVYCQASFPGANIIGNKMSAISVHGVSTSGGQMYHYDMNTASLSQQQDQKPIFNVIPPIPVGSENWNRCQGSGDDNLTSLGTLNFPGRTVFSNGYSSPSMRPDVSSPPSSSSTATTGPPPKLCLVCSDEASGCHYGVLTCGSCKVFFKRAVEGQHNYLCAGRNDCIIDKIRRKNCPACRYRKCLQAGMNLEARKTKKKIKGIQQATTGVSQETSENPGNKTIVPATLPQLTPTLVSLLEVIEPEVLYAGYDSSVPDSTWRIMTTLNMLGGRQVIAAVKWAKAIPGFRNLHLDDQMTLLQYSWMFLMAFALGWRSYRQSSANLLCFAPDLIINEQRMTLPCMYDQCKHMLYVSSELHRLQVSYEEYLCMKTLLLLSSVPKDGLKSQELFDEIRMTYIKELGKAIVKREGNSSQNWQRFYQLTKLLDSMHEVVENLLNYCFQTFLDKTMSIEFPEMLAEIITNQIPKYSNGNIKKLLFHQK
The format is functional.
Further: assay procedure not described here.

Histamine H2 receptor, sequence (P25021 whole entry): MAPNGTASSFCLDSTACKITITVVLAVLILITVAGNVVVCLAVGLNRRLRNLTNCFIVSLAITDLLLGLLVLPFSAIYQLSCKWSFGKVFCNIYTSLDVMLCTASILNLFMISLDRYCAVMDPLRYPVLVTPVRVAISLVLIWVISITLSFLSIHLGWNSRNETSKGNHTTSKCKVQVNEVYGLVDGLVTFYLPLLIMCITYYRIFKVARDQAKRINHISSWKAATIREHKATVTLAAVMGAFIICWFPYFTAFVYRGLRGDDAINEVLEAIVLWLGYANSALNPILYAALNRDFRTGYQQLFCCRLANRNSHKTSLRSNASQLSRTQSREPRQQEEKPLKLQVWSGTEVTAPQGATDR

Regarding `CCCCN1C[C@H](O)[C@@H](O)[C@H](O)[C@H]1CO`, the AC50 on Estrogen receptor was above 30 µM. With `CCOC(=O)[C@H](CCc1ccccc1)N[C@@H](C)C(=O)N1[C@H](C(=O)O)C[C@@H]2CCC[C@@H]21`, the AC50 on Estrogen receptor is above 30 µM; on Histamine H2 receptor it was above 10 µM; in assay [1], above 10 µM; in assay [2], above 10 µM. On to `Nc1nc(NC2CC2)c2ncn([C@H]3C=C[C@@H](CO)C3)c2n1` [ABACAVIR], for which the AC50 in assay [3] was above 30 µM. As to `CC(=O)Nc1ccc(O)cc1` [ACETAMINOPHEN], the AC50 in assay [3] and in assay [4] was above 30 µM each time.

`COc1cc2nc(N(C)CCCNC(=O)C3CCCO3)nc(N)c2cc1OC` (configuration not stated) [ALFUZOSIN] displayed a half-maximal activity concentration (AC50) on Estrogen receptor above 30 µM. In assay [4], `C=CCc1ccccc1OCC(O)CNC(C)C` (configuration not stated) [ALPRENOLOL] gave an AC50 above 0.3 µM. Turning to `COC(c1ccccc1)(c1ccccc1)[C@H](Oc1nc(C)cc(C)n1)C(=O)O` [AMBRISENTAN], the AC50 in assay [4] is above 30 µM.

For `CNC(=O)c1ccccc1Sc1ccc2c(/C=C/c3ccccn3)n[nH]c2c1` [AXITINIB], the figures for the AC50 (in assay [3]; at Glucocorticoid receptor) were above 30 µM and above 10 µM, respectively. With `CC[C@H]1OC(=O)[C@H](C)[C@@H](O[C@H]2C[C@@](C)(OC)[C@@H](O)[C@H](C)O2)[C@H](C)[C@@H](O[C@@H]2O[C@H](C)C[C@H](N(C)C)[C@H]2O)[C@](C)(O)C[C@@H](C)CN(C)[C@H](C)[C@@H](O)[C@]1(C)O` [AZITHROMYCIN], the AC50 at Estrogen receptor is above 30 µM; at Histamine H2 receptor, above 10 µM; in assay [1], above 10 µM; in assay [2], above 10 µM. For `Cc1ccc(-c2cc(C(F)(F)F)nn2-c2ccc(S(N)(=O)=O)cc2)cc1` [CELECOXIB], the AC50 was above 30 µM on Estrogen receptor, above 10 µM on Histamine H2 receptor, above 10 µM in assay [1] and above 10 µM in assay [2]. As to `CC1=C(C(=O)O)N2C(=O)[C@@H](NC(=O)[C@H](N)c3ccccc3)[C@H]2SC1` [CEPHALEXIN ANHYDROUS], the AC50 on Estrogen receptor was above 30 µM; at Histamine H2 receptor it was above 10 µM; in assay [1] it was above 10 µM; in assay [2], above 10 µM. In assay [4], `Oc1c(Cl)cc(Cl)c2cccnc12` [CHLOROXINE] came in with an AC50 above 30 µM. As to `CN(C)CCC(c1ccc(Cl)cc1)c1ccccn1` (configuration not stated) [CHLORPHENIRAMINE], the values for the AC50 (on Histamine H2 receptor; in assay [1]; in assay [2]) were 0.412 µM, above 10 µM and above 10 µM, respectively. At Estrogen receptor, `CN(C)/N=N/c1[nH]cnc1C(N)=O` [DACARBAZINE] registered an AC50 above 10 µM.

In turn, `CN(C)CCN1C(=O)c2ccccc2N(C)c2ccccc21` [DIBENZEPIN] returned an AC50 in assay [4] above 30 µM.

In turn, `O=C(Cc1ccc(-c2ccccc2)cc1)Nc1ccccn1` [DIFENPIRAMIDE] returned an AC50 in assay [3] above 30 µM. For the compound `N[C@H](C(=O)O)[C@H](O)c1ccc(O)c(O)c1` [DROXIDOPA], the AC50 in assay [4] is above 30 µM. On the same count and under the same terms, then `C[C@]12CC[C@@H]3c4ccc(O)cc4CC[C@H]3[C@@H]1C[C@@H](O)[C@@H]2O` [ESTRIOL], with above 30 µM. Still for that read-out and setting: the value for `O=C(O)c1cc(O)ccc1O` [GENTISIC ACID] was above 30 µM. For the compound `CCC1=C(C)CN(C(=O)NCCc2ccc(S(=O)(=O)NC(=O)N[C@H]3CC[C@H](C)CC3)cc2)C1=O` [GLIMEPIRIDE], the AC50 (at Glucocorticoid receptor; in assay [4]) was above 30 µM in each case. Turning to `C[N+]1(C)CCC(OC(=O)C(O)(c2ccccc2)C2CCCC2)C1` (configuration not stated) [GLYCOPYRRONIUM BROMIDE], the AC50 at Estrogen receptor is above 30 µM. For the compound `C[C@]12CCC(=O)C=C1CC[C@@H]1[C@@H]2[C@@H](O)C[C@@]2(C)[C@H]1CC[C@]2(O)C(=O)CO` [HYDROCORTISONE], the AC50 (at Histamine H2 receptor; in assay [1]; in assay [2]) was above 10 µM each time. Turning to `CCC(C)n1ncn(-c2ccc(N3CCN(c4ccc(OCC5COC(Cn6cncn6)(c6ccc(Cl)cc6Cl)O5)cc4)CC3)cc2)c1=O` (configuration not stated) [ITRACONAZOLE], the AC50 at Estrogen receptor is above 30 µM; on Histamine H2 receptor, above 10 µM; in assay [1] it was above 10 µM; in assay [2], above 10 µM. Turning to `CN1C(C(=O)Nc2ccccn2)=C(O)c2sc(Cl)cc2S1(=O)=O` [LORNOXICAM], the AC50 on Estrogen receptor was above 30 µM. `OCCN1C[C@H](O)[C@@H](O)[C@H](O)[C@H]1CO` [MIGLITOL]: the AC50 in assay [4] is above 30 µM. In assay [4], `CC(=O)N[C@@H]1[C@@H](O)[C@H](O)[C@@H](CO)O[C@H]1O` [N-ACETYLGLUCOSAMINE] gave an AC50 above 30 µM.

As to `O=C(CCNNC(=O)c1ccncc1)NCc1ccccc1` [NIALAMIDE], the AC50 in assay [4] is above 30 µM. Consider `CC[C@H]1[C@@H](O)[C@@H]2[C@H](CC[C@]3(C)[C@@H]([C@H](C)CCC(=O)O)CC[C@@H]23)[C@@]2(C)CC[C@@H](O)C[C@@H]12` [OBETICHOLIC ACID], for which the AC50 (on Estrogen receptor; in assay [4]) was above 30 µM in each case.

The compound `CC[N+]1(C)[C@@H]2CC(OC(=O)[C@H](CO)c3ccccc3)C[C@H]1[C@@H]1O[C@@H]12` (some centres not stated) [OXITROPIUM] gave a half-maximal activity concentration (AC50) in assay [4] above 30 µM.

Take `CC(C)(C)NC[C@H](O)COc1ccccc1C1CCCC1` [PENBUTOLOL]: the AC50 in assay [4] is above 30 µM. Same read-out and setting: then `CC(C)(S)[C@@H](N)C(=O)O` [PENICILLAMINE], with above 30 µM. In the case of `COc1cc(NC(C)CCCN)c2ncccc2c1` (configuration not stated) [PRIMAQUINE], half-maximal activity on Estrogen receptor (AC50) was put at 6.7 µM. Turning to `COc1ccccc1OCC(O)CN1CCN(CC(=O)Nc2c(C)cccc2C)CC1` (configuration not stated) [RANOLAZINE], the concentration at half-maximal activity (AC50) at Estrogen receptor is above 30 µM; in assay [2] it was 13 µM. `CS(=O)(=O)c1ccc(C2=C(c3ccccc3)C(=O)OC2)cc1` [ROFECOXIB]: the AC50 at Histamine H2 receptor is above 10 µM; in assay [1], above 10 µM; in assay [2], above 10 µM; in assay [4], above 30 µM. On to `CO[C@H]1C[C@@H]2CC[C@@H](C)[C@@](O)(O2)C(=O)C(=O)N2CCCC[C@H]2C(=O)O[C@H]([C@H](C)C[C@@H]2CC[C@@H](O)[C@H](OC)C2)CC(=O)[C@H](C)/C=C(\C)[C@@H](O)[C@@H](OC)C(=O)[C@H](C)C[C@H](C)/C=C/C=C/C=C/1C` [SIROLIMUS], for which the AC50 on Estrogen receptor is above 30 µM; in assay [1] it was above 10 µM. Take `Cc1cn([C@H]2C=C[C@@H](CO)O2)c(=O)[nH]c1=O` [STAVUDINE]: the AC50 at Histamine H2 receptor is above 10 µM; in assay [1], above 10 µM; in assay [2] it was above 10 µM; in assay [4] it was above 30 µM. For `Clc1ccc2nsnc2c1NC1=NCCN1` [TIZANIDINE], the figures for the AC50 (at Estrogen receptor; at Histamine H2 receptor; in assay [1]) were above 30 µM, above 10 µM and above 10 µM, respectively. Compound `CCOC(=O)[C@H](CCc1ccccc1)N[C@@H](C)C(=O)N1[C@H](C(=O)O)C[C@H]2CCCC[C@@H]21` [TRANDOLAPRIL] came in with an AC50 in assay [4] above 30 µM. Still for that read-out and setting: then `CCCCCCOc1nsnc1C1=CCCN(C)C1` [XANOMELINE], with above 30 µM. On to `Nc1ccn([C@H]2CC[C@@H](CO)O2)c(=O)n1` [ZALCITABINE], for which the AC50 at Estrogen receptor is above 10 µM. With `Cc1cn([C@H]2C[C@H](N=[N+]=[N-])[C@@H](CO)O2)c(=O)[nH]c1=O` [ZIDOVUDINE], the AC50 was above 30 µM on Estrogen receptor, above 10 µM on Histamine H2 receptor, above 10 µM in assay [1] and above 10 µM in assay [2].
